Here are results for eight compounds from PubChem BioAssay (NCI).

Values joined by “and” are separate entries in the source; they are usually repeats but may differ in a detail not shown here. Identical values can stand only once.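 How tested: cells in 96-well plates exposed to compound for 48 hours at five concentrations. The concentration for 50% growth inhibition is given as GI50. The concentration for full growth arrest is given as TGI.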

Among the test systems are HOP-92 NSCLC; K-562 leukemia; 786-0 renal; SK-MEL-2 melanoma; SK-OV-3 ovarian; SNB-75 CNS; UO-31 renal; HT29 colon; OVCAR-4 ovarian; SN12C renal.
Holding throughout (experiment): growth of human tumour cells (NCI), 48 h

Consider `Clc1ccc2c(NCCNc3nc(N4CCOCC4)nc4ccccc34)ccnc2c1`, for which the GI50 in the experiment with HOP-92 NSCLC was 1430 nM; in the experiment with K-562 leukemia, 892 nM; in the experiment with 786-0 renal, 1790 nM; in the experiment with SK-MEL-2 melanoma, 1950 nM; with SK-OV-3 ovarian, 1850 nM; in the experiment with SNB-75 CNS, 1440 nM. Also, the GI50 with UO-31 renal is 1340 nM; in the experiment with HT29 colon, 1890 nM; in the experiment on OVCAR-4 ovarian it was 2460 nM; in the experiment on SN12C renal, 2750 nM. Also, the TGI in the experiment with HOP-92 NSCLC amounted to 3200 nM; with K-562 leukemia, 13100 nM; with 786-0 renal, 4950 nM; in the experiment on SK-MEL-2 melanoma, 3720 nM; in the experiment with SK-OV-3 ovarian it was 3850 nM; with SNB-75 CNS, 2850 nM. For the same compound, the TGI with UO-31 renal is 2680 nM; in the experiment on HT29 colon, 3560 nM; in the experiment on OVCAR-4 ovarian, 6170 nM; in the experiment with SN12C renal it was 7690 nM.
On to `CN1CCCCC1CCN1c2ccccc2Sc2ccc(Br)cc21` (stereo not given), for which the GI50 with HOP-92 NSCLC is 1400 nM; in the experiment with K-562 leukemia, 2180 nM; in the experiment on 786-0 renal it was 2140 nM; in the experiment on SK-MEL-2 melanoma, 2500 nM; in the experiment with SK-OV-3 ovarian, 3440 nM; in the experiment on SNB-75 CNS, 1650 nM. Moreover, the GI50 is 2680 nM in the experiment with UO-31 renal, 2510 nM in the experiment on HT29 colon, 3600 nM in the experiment with OVCAR-4 ovarian and 3230 nM in the experiment on SN12C renal. Besides, the TGI in the experiment on HOP-92 NSCLC is 4720 nM; in the experiment on K-562 leukemia it was 5980 nM; in the experiment with 786-0 renal it was 4790 nM; with SK-MEL-2 melanoma it was 5940 nM; with SK-OV-3 ovarian it was 12300 nM; in the experiment on SNB-75 CNS, 5560 nM. Further, the TGI in the experiment with UO-31 renal was found to be 10800 nM; in the experiment with HT29 colon, 6920 nM; in the experiment with OVCAR-4 ovarian it was 13600 nM; in the experiment with SN12C renal, 11900 nM.
On to `Cc1cc(C)c2nc3c(c(C(O)C4CCCCN4)c2c1)CC/C3=C\c1ccc(Cl)cc1` (stereo not given), for which the TGI in the experiment on HOP-92 NSCLC, in the experiment with K-562 leukemia, in the experiment on 786-0 renal, in the experiment on SK-MEL-2 melanoma, with SK-OV-3 ovarian and in the experiment with SNB-75 CNS was more than 100000 nM throughout. Moreover, the TGI in the experiment with HT29 colon, in the experiment with OVCAR-4 ovarian and in the experiment on SN12C renal was more than 100000 nM throughout.
Turning to `COc1cc(C(=O)c2cnc(-c3c[nH]c4cccc(C)c34)[nH]2)cc(OC)c1OC`, the TGI is 18300 nM in the experiment with HOP-92 NSCLC; 17400 nM in the experiment with K-562 leukemia; more than 100000 nM in the experiment with 786-0 renal; 30700 nM in the experiment with SK-MEL-2 melanoma; 2500 nM in the experiment on SK-OV-3 ovarian; 36800 nM with SNB-75 CNS. Moreover, the TGI was 14700 nM with UO-31 renal, more than 100000 nM in the experiment with OVCAR-4 ovarian and more than 100000 nM with SN12C renal. For the same compound, the GI50 is 3.63 nM with K-562 leukemia; 6.81 nM in the experiment with 786-0 renal; 7.45 nM in the experiment on SK-MEL-2 melanoma; 6.5 nM in the experiment on SK-OV-3 ovarian; 2.57 nM in the experiment with SNB-75 CNS; 9.65 nM in the experiment with UO-31 renal. The GI50 with HT29 colon was 6.43 nM; with OVCAR-4 ovarian, 529 nM; with SN12C renal, 9.29 nM.
For `O=c1[nH]c2cc(Cl)ccc2nc1/C(=N\Nc1ccccc1)C(O)c1ccc2c(c1)OCO2` (stereo not given), the TGI in the experiment with HOP-92 NSCLC, with K-562 leukemia, with 786-0 renal, with SK-MEL-2 melanoma, in the experiment with SK-OV-3 ovarian and in the experiment on SNB-75 CNS was more than 100000 nM throughout. In addition, the TGI in the experiment on UO-31 renal, in the experiment on HT29 colon, in the experiment on OVCAR-4 ovarian and in the experiment with SN12C renal was more than 100000 nM in each case.
`Nc1ccc(CC[C@H]2CCC/C=C/[C@@H]3C[C@H](O)C[C@H]3[C@H](O)/C=C/C(=O)O2)cc1`: the GI50 with HOP-92 NSCLC was 43.6 nM; with K-562 leukemia it was 43 nM; in the experiment on 786-0 renal, 23.9 nM; with SK-MEL-2 melanoma it was 38.1 nM; in the experiment with SK-OV-3 ovarian, 48.3 nM; in the experiment with SNB-75 CNS, 18.9 nM. In addition, the GI50 with UO-31 renal was 27.6 nM; in the experiment with HT29 colon, 33.6 nM; with OVCAR-4 ovarian it was 33.9 nM; in the experiment with SN12C renal it was 63.9 nM. The TGI was 530 nM with HOP-92 NSCLC; more than 100000 nM with K-562 leukemia; 57 nM in the experiment with 786-0 renal; 180 nM in the experiment with SK-MEL-2 melanoma; more than 100000 nM in the experiment with SK-OV-3 ovarian; more than 100000 nM in the experiment on SNB-75 CNS. In addition, the TGI in the experiment on UO-31 renal is 2340 nM; in the experiment on HT29 colon, 577 nM; in the experiment with OVCAR-4 ovarian, 2730 nM; in the experiment with SN12C renal, more than 100000 nM.
Take `C/C=C/C=C/c1cc2cc3c(c(O)c2c(=O)[nH]1)C1(CC3)C(O)=c2c(=O)c3c(=O)cc(OC)c(=O)c=3c(=O)c2=C1O` (stereo not given): the GI50 with HOP-92 NSCLC was 415 nM; in the experiment with 786-0 renal, 410 nM and 1910 nM; in the experiment with SK-MEL-2 melanoma, 249 nM and 885 nM; with SNB-75 CNS it was 56.7 nM and 545 nM; in the experiment on UO-31 renal it was 170 nM and 1370 nM; in the experiment with OVCAR-4 ovarian, 311 nM and 1080 nM. In addition, the TGI was 2280 nM in the experiment on HOP-92 NSCLC; more than 38400 nM with K-562 leukemia; 4370 nM and 8390 nM in the experiment with 786-0 renal; 14200 nM and 4860 nM with SK-MEL-2 melanoma; 16000 nM and 8750 nM with SK-OV-3 ovarian; 511 nM and 1720 nM in the experiment on SNB-75 CNS. For the same compound, the TGI was 16300 nM and 9830 nM in the experiment on UO-31 renal; 1370 nM and 13500 nM in the experiment on HT29 colon; 11300 nM and 8370 nM with OVCAR-4 ovarian.
On to `COC(=O)c1c(C)nc(C)c2c1C(=O)C(Br)=C(NCc1ccccc1)C2=O`, for which the GI50 with HOP-92 NSCLC is 2460 nM; with K-562 leukemia it was 3360 nM; with 786-0 renal, 4650 nM; in the experiment with SK-MEL-2 melanoma, 2520 nM; in the experiment with SK-OV-3 ovarian, 6200 nM; with UO-31 renal, 2410 nM. For the same compound, the GI50 with HT29 colon was 2970 nM; in the experiment on OVCAR-4 ovarian, 1550 nM; with SN12C renal, 1490 nM. Also, the TGI with HOP-92 NSCLC is 5780 nM; with K-562 leukemia, more than 100000 nM; with 786-0 renal, 16300 nM; in the experiment on SK-MEL-2 melanoma, 6630 nM; in the experiment on SK-OV-3 ovarian, 19200 nM; with UO-31 renal, 10700 nM. Also, the figures for the TGI in the experiment with HT29 colon, with OVCAR-4 ovarian and in the experiment with SN12C renal were 7960 nM, 3000 nM and 3450 nM, respectively.
